Legend:
dopamine D2 [1] = biological target: T1, dopamine D2 (Homo sapiens, UniProt P14416); details: read-out: dopamine D2 Ki (literature); previously assayed analogue; cited from earlier work
Target sequence in this assay (P14416 whole entry): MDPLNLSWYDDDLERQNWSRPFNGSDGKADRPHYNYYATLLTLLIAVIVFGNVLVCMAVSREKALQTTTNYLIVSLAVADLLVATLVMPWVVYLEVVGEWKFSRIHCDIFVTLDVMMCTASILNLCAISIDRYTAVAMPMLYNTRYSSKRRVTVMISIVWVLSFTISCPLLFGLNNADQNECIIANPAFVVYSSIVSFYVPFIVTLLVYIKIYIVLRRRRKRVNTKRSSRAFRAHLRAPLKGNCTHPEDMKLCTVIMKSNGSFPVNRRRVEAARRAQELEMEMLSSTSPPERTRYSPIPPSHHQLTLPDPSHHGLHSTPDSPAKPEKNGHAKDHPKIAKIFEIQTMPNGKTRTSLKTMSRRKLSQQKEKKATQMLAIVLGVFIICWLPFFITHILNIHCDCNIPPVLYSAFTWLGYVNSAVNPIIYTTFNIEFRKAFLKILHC

dopamine D4 [2] = biological target: T2, dopamine D4 (Homo sapiens, UniProt P21917); details: previously reported analogue; read-out: dopamine D4 Ki (literature); cited from earlier work
T2 sequence (P21917 1-419): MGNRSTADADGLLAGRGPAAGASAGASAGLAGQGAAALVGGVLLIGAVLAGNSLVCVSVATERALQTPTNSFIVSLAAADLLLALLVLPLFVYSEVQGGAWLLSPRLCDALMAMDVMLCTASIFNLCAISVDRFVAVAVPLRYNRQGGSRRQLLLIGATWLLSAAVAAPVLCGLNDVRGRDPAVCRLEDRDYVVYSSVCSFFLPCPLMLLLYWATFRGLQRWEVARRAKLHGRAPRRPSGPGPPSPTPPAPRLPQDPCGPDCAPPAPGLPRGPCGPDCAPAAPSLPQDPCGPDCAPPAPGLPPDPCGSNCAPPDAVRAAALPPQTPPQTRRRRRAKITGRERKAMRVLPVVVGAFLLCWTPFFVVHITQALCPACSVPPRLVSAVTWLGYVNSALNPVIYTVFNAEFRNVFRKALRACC

α1A (Alpha1A) = biological target: T3, α1A (Alpha1A) (Homo sapiens, UniProt P35348); assay: Secondary radioligand binding assay (Ki)
T3 sequence (P35348 1-466): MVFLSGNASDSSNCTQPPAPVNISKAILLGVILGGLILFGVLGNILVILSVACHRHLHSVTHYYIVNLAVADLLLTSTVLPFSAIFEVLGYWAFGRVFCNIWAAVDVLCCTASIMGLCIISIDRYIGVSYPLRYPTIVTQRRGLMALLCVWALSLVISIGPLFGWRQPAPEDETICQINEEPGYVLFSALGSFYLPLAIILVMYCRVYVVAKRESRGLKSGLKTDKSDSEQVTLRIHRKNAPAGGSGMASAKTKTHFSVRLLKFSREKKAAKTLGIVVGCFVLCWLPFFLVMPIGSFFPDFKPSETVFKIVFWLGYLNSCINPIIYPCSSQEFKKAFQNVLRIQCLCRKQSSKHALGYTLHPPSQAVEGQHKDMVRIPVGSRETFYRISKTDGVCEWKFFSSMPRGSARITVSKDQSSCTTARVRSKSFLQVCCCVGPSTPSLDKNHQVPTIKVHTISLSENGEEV
Protocol: (§1) Radioligand is diluted to five times the assay concentration (see Table 18) in Standard Binding Buffer. Typically, the assay concentration of radioligand is a value between one half the KD and the KD of a particular radioligand at its target. 50 μl aliquots of radioligand are dispensed into the wells of a 96-well plate containing 100 μl of Standard Binding Buffer. Then, duplicate 50 μl aliquots of the test and reference compound dilutions are added.
(§2) The 250 μl reactions are incubated at room temperature and shielded from light (to prevent photolysis of light-sensitive ligands) for 1.5 hours, then harvested by rapid filtration onto Whatman GF/B glass fiber filters pre-soaked with 0.3% polyethyleneimine using a 96-well Brandel harverster. Four rapid 500 μl washes are performed with chilled Standard Binding Buffer to reduce non-specific binding. Filters are placed in 6 ml scintillation tubes and allowed to dry overnight. The next day, 4 ml of EcoScint scintillation cocktail (National Diagnostics) are added to each tube. The tubes are capped, labeled, and counted by liquid scintillation counting. […] The filter mats are dried, then scintillant is melted onto the filters and the radioactivity retained on the filters is counted in a Microbeta scintillation counter.
(§3) Raw data (dpm) representing total radioligand binding (i.e. specific+non-specific binding) are plotted as a function of the logarithm of the molar concentration of the competitor (i.e. test or reference compound).
Adrenergic Receptors: α1A, α1B, α2A, α2B, α2C, β1, β2, β3
Membrane Fraction Source: Transiently or stably transfected cell lines (e.g. HEK293, COS, CHO, NIH3T3)
The method is carried out in the manner described for the serotonin receptor assay above, except where described below. Eleven dilutions (5× assay concentration) of the test and reference (see Table 20) compounds are prepared in the appropriate buffer by serial dilution, as previously described. Radioligand is diluted to five times the assay concentration (see Table 21) in the appropriate buffer.
The 250 μl reactions are incubated at room temperature and shielded from light (to prevent photolysis of light-sensitive ligands) for 1 hour (for α1 receptors, 40 min for α2 receptors, and 1.5 hours for β receptors), then harvested by rapid filtration onto Whatman GF/B glass fiber filters pre-soaked with 0.3% polyethyleneimine using a 96-well Brandel harverster. Four rapid 500-μl washes are performed with chilled distilled water (for α1 and β receptors) or 0.1% polyethyleneimine (for α2 receptors) to reduce non-specific binding. Filters are placed in 6 ml scintillation tubes and allowed to dry overnight and the samples are treated to obtain data as described above.

dopamine D1 = dopamine D1 (Homo sapiens, UniProt P21728); assay: Primary radioligand binding assay (NIMH PDSP); details: primary radiobinding assay, [3H]SCH233930; further: test concentration or dose not given here
dopamine D1, sequence (P21728 whole entry): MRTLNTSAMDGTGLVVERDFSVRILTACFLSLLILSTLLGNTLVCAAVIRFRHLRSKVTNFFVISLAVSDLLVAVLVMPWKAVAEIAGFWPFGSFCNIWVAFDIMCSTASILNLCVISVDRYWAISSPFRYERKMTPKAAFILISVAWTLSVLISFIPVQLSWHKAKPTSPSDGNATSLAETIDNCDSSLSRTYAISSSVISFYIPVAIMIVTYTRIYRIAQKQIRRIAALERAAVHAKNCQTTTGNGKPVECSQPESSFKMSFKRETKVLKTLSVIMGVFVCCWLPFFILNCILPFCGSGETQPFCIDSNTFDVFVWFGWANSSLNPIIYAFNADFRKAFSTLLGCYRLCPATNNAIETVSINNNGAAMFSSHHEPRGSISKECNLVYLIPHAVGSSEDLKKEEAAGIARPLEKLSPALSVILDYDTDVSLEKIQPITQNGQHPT

Alpha1A = biological target: T4, Alpha1A (Homo sapiens, UniProt P35348); assay: Primary radioligand binding assay (NIMH PDSP); details: primary radiobinding assay, [3H]Prazosin; further: test concentration or dose not given here
T4 sequence (P35348 1-466): T3 sequence (P35348 1-466)

dopamine D2 [3] = biological target: T1, dopamine D2; assay: Primary radioligand binding assay (NIMH PDSP); details: primary radiobinding assay, [3H]N-methylspiperone; on D4 (% inh): test concentration or dose not given here
Target sequence in this assay (P14416 whole entry, species assumed): as the sequence (P14416 whole entry) above

5-HT7 = 5-HT7 (Homo sapiens, UniProt P34969); assay: Secondary radioligand binding assay (Ki)
5-HT7, sequence (P34969 whole entry, species assumed): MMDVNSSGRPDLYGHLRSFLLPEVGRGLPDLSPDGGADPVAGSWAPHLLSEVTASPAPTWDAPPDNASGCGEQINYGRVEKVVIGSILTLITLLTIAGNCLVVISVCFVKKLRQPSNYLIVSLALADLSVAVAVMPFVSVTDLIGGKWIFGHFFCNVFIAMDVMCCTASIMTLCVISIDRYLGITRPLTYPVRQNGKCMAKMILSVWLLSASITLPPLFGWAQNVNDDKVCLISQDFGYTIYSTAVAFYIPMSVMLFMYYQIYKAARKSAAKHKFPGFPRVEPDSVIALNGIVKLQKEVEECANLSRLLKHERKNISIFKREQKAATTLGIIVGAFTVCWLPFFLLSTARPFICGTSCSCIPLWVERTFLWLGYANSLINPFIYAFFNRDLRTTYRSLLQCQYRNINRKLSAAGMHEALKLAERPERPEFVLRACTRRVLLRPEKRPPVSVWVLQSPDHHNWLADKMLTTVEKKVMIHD
Protocol: (§4) Assay Buffer: Standard Binding Buffer (50 mM Tris-HCl, 10 mM MgCl2, 1 mM EDTA, pH 7.4)
(§5) Membrane Fraction Source: Transiently or stably transfected cell lines (e.g., HEK293, COS, CHO, NIH3T3)
as §1, §2, §3

Alpha1D = biological target: T5, Alpha1D (Homo sapiens, UniProt P25100); assay: Primary radioligand binding assay (NIMH PDSP); details: primary radiobinding assay, [3H]Prazosin
T5 sequence (P25100 1-572): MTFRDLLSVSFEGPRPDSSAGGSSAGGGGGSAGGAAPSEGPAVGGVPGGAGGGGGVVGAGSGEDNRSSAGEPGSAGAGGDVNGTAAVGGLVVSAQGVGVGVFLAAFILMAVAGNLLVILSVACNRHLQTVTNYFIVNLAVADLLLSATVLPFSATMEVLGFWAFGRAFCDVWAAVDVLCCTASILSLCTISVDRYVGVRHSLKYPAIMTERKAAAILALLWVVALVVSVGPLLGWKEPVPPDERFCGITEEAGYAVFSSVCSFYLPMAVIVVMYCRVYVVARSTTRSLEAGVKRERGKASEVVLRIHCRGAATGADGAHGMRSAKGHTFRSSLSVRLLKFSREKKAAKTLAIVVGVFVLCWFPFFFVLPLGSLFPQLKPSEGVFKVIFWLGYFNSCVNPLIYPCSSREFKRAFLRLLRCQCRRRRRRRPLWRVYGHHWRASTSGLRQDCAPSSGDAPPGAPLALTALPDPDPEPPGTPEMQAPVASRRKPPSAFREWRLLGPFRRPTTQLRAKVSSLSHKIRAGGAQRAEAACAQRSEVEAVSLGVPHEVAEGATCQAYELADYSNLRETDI

5HT1a = biological target: T6, 5HT1a (Homo sapiens, UniProt P08908); assay: Secondary radioligand binding assay (Ki)
T6 sequence (P08908 1-422): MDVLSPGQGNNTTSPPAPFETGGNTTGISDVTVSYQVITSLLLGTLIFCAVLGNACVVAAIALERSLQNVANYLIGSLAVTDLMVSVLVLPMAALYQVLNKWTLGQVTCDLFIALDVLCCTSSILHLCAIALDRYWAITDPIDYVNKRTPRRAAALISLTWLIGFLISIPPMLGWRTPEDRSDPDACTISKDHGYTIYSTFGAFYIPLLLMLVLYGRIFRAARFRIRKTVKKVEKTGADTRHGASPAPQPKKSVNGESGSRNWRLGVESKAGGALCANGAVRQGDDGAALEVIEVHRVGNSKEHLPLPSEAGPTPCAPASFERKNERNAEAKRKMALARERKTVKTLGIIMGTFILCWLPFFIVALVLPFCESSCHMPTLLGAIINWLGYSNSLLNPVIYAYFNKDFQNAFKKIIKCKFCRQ
Protocol: as §4, §5, §1, §2, §3

dopamine D3 = dopamine D3 (Homo sapiens, UniProt P35462); assay: Primary radioligand binding assay (NIMH PDSP); details: primary radiobinding assay, N-methylspiperone; further: test concentration or dose not given here
dopamine D3, sequence (P35462 whole entry): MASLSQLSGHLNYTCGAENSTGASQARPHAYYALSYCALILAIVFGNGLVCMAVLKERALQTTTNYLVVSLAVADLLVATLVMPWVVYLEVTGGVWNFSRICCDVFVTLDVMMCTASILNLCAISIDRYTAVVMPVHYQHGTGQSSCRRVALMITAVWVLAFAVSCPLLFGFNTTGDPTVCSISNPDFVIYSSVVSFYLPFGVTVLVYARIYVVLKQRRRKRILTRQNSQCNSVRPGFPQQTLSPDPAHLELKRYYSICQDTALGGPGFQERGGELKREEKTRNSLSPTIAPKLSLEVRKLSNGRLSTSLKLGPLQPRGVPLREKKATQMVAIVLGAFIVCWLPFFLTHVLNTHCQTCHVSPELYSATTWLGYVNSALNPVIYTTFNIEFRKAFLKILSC

5-HT2B = 5-HT2B (Homo sapiens, UniProt P41595); assay: Secondary radioligand binding assay (Ki)
5-HT2B, sequence (P41595 whole entry, species assumed): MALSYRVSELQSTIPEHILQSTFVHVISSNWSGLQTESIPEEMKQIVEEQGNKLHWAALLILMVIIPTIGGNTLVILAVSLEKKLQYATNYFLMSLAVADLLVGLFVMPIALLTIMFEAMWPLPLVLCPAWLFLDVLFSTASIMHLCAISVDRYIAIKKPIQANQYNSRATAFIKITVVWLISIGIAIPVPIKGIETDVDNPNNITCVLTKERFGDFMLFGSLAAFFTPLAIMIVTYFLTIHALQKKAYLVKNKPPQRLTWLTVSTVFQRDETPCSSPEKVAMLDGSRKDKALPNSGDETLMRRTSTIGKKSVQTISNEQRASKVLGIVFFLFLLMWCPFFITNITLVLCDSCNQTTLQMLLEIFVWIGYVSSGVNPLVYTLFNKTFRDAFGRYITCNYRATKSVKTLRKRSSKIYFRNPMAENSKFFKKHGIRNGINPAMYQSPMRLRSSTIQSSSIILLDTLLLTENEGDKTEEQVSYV
Protocol: as §4, §5, §1, §2, §3

dopamine D5 = dopamine D5 (Homo sapiens, UniProt P21918); assay: Primary radioligand binding assay (NIMH PDSP); details: primary radiobinding assay, [3H]SCH233930; further: test concentration or dose not given here
dopamine D5, sequence (P21918 whole entry): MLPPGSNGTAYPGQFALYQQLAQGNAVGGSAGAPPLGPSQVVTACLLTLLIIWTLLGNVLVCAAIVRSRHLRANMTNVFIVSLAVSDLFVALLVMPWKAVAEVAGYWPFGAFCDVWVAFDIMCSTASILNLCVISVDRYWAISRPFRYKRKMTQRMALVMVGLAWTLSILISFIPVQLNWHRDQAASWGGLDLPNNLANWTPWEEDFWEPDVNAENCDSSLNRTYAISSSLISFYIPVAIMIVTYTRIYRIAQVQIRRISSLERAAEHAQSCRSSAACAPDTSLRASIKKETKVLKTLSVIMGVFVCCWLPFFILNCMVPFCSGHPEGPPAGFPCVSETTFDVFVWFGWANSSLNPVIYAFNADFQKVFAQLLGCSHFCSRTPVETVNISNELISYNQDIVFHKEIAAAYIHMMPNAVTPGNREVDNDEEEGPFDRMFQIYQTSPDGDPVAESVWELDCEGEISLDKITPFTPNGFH

Alpha1B = biological target: T7, Alpha1B (Homo sapiens, UniProt P35368); assay: Primary radioligand binding assay (NIMH PDSP); details: primary radiobinding assay, [3H]Prazosin; further: test concentration or dose not given here
T7 sequence (P35368 1-520): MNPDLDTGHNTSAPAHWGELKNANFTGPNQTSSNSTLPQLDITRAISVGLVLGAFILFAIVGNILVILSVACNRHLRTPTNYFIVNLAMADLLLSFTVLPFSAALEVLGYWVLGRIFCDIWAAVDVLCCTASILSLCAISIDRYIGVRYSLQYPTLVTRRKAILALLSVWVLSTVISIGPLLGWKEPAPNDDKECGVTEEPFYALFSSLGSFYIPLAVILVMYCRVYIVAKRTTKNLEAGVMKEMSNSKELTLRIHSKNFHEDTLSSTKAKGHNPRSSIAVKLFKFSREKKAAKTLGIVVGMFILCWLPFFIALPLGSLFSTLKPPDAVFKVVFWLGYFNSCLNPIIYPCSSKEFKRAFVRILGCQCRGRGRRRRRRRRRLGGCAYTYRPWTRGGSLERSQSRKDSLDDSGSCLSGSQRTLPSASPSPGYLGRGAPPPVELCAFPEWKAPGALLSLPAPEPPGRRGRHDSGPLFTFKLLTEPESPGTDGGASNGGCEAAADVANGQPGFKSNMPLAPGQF

dopamine D4 [4] = biological target: T2, dopamine D4; assay: Primary radioligand binding assay (NIMH PDSP); details: primary radiobinding assay, N-methylspiperone; on D4 (% inh): test concentration or dose not given here

SMILES	Ki (dopamine D2 [1])	Ki (dopamine D4 [2])	Ki (α1A (Alpha1A))	D1 (% inh) (dopamine D1)	Alpha1A (% inh) (Alpha1A)	D2 (% inh) (dopamine D2 [3])	Ki (5-HT7)	Alpha1D (% inh) (Alpha1D)	Ki (5HT1a)	D3 (% inh) (dopamine D3)	Ki (5-HT2B)	D5 (% inh) (dopamine D5)	Alpha1B (% inh) (Alpha1B)	D4 (% inh) (dopamine D4 [4])
O=C1c2ccccc2CN1CCCCN1CCN(c2ccccc2)CC1 [2-(4-(4-Phenyl-1-piperazinyl)butyl)-1-isoindolinone]	319 nM	134 nM												
CC1Cc2ccccc2N1C(=O)CN1CCN(c2ccccc2)CC1 (stereo not drawn) [STT-00185641]			2010 nM	−1 % inh	64.8 % inh	2 % inh	2820 nM	31.1 % inh	8430 nM	51 % inh	1450 nM	18 % inh	−19.8 % inh	
COc1cc2c(cc1OC)C(=O)C(CC1CCN(Cc3ccccc3)CC1)C2 (stereo not drawn) [donepezil, reference compound]						18.6 % inh								89.2 % inh

Reference: patent US10381110B2, “Molecules” (University of Dundee, priority 2010, dated 2019)
